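Step 1: Grow cells in 96-well plates. Step 2: Expose to compound for 48 hours at 5 concentrations. Step 3: Interpolate endpoints linearly; if unreached, use highest concentration. The concentration for 50% growth inhibition is given as GI50. At the TGI there is no net growth.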
Assays:
Experiment in all cases: NCI tumour cell line growth inhibition, 48 h
786-0 renal = system: 786-0 renal
A549 NSCLC = system: A549 NSCLC
ACHN renal = system: ACHN renal
BT-549 breast = system: BT-549 breast
CAKI-1 renal = system: CAKI-1 renal
CCRF-CEM leukemia = system: CCRF-CEM leukemia
COLO 205 colon = system: COLO 205 colon
DU-145 prostate = system: DU-145 prostate
EKVX NSCLC = system: EKVX NSCLC
HCT-116 colon = system: HCT-116 colon
HCT-15 colon = system: HCT-15 colon
HOP-62 NSCLC = system: HOP-62 NSCLC
HOP-92 NSCLC = system: HOP-92 NSCLC
HS 578T breast = system: HS 578T breast
HT29 colon = system: HT29 colon
IGROV1 ovarian = system: IGROV1 ovarian
K-562 leukemia = system: K-562 leukemia
KM12 colon = system: KM12 colon
LOX IMVI melanoma = system: LOX IMVI melanoma
M14 melanoma = system: M14 melanoma
MALME-3M melanoma = system: MALME-3M melanoma
MCF7 breast = system: MCF7 breast
MDA-MB-231 breast = system: MDA-MB-231 breast
MDA-MB-435 = system: MDA-MB-435
MOLT-4 leukemia = system: MOLT-4 leukemia
NCI-H226 lung = system: NCI-H226 lung
NCI-H23 lung = system: NCI-H23 lung
NCI-H460 lung = system: NCI-H460 lung
NCI-H522 lung = system: NCI-H522 lung
NCI/ADR-RES ovarian = system: NCI/ADR-RES ovarian
OVCAR-3 ovarian = system: OVCAR-3 ovarian
OVCAR-4 ovarian = system: OVCAR-4 ovarian
OVCAR-5 ovarian = system: OVCAR-5 ovarian
OVCAR-8 ovarian = system: OVCAR-8 ovarian
PC-3 prostate = system: PC-3 prostate
RPMI-8226 leukemia = system: RPMI-8226 leukemia
RXF 393 renal = system: RXF 393 renal
SF-268 CNS = system: SF-268 CNS
SF-295 CNS = system: SF-295 CNS
SK-MEL-2 melanoma = system: SK-MEL-2 melanoma
SK-MEL-28 melanoma = system: SK-MEL-28 melanoma
SK-MEL-5 melanoma = system: SK-MEL-5 melanoma
SK-OV-3 ovarian = system: SK-OV-3 ovarian
SN12C renal = system: SN12C renal
SNB-19 CNS = system: SNB-19 CNS
SR leukemia = system: SR leukemia
SW-620 colon = system: SW-620 colon
T-47D breast = system: T-47D breast
TK-10 renal = system: TK-10 renal
U251 CNS = system: U251 CNS
UACC-62 melanoma = system: UACC-62 melanoma
UO-31 renal = system: UO-31 renal

Q: For `O=C1C(Cl)=C(Nc2cccc(O)c2)C(=O)N1CCc1ccccc1`, which GI50 (786-0 renal) is on record?
A: 19.2 µM

Q: What about the TGI (786-0 renal) of the same compound?
A: 36.6 µM

Q: And the GI50 (A549 NSCLC)?
A: 20.6 µM

Q: What about the TGI (A549 NSCLC) of the same compound?
A: 46.4 µM

Q: And the GI50 (ACHN renal)?
A: 22.9 µM

Q: And the TGI (ACHN renal)?
A: 47.5 µM

Q: What about the GI50 (BT-549 breast) of the same compound?
A: 17.9 µM

Q: And the TGI (BT-549 breast)?
A: 47.1 µM

Q: What about the GI50 (CAKI-1 renal) of the same compound?
A: 22.5 µM

Q: What about the TGI (CAKI-1 renal) of the same compound?
A: 56.3 µM

Q: What about the GI50 (CCRF-CEM leukemia) of the same compound?
A: 12.6 µM

Q: And the TGI (CCRF-CEM leukemia)?
A: 69.4 µM

Q: What about the GI50 (COLO 205 colon) of the same compound?
A: 33.2 µM

Q: What about the TGI (COLO 205 colon) of the same compound?
A: > 100 µM

Q: And the GI50 (DU-145 prostate)?
A: 15.3 µM

Q: And the TGI (DU-145 prostate)?
A: 32.5 µM

Q: What about the GI50 (EKVX NSCLC) of the same compound?
A: 19.3 µM

Q: What about the TGI (EKVX NSCLC) of the same compound?
A: 40.9 µM

Q: And the GI50 (HCT-116 colon)?
A: 24.3 µM

Q: What about the TGI (HCT-116 colon) of the same compound?
A: 73.3 µM

Q: What about the GI50 (HCT-15 colon) of the same compound?
A: 22.4 µM

Q: What about the TGI (HCT-15 colon) of the same compound?
A: 57.8 µM

Q: And the GI50 (HOP-62 NSCLC)?
A: 19.2 µM

Q: What about the TGI (HOP-62 NSCLC) of the same compound?
A: 38.4 µM

Q: What about the GI50 (HOP-92 NSCLC) of the same compound?
A: 15.9 µM

Q: And the TGI (HOP-92 NSCLC)?
A: 36.4 µM

Q: And the GI50 (HS 578T breast)?
A: 17.5 µM

Q: And the TGI (HS 578T breast)?
A: 40.5 µM

Q: And the GI50 (HT29 colon)?
A: 24.3 µM

Q: And the TGI (HT29 colon)?
A: 82.5 µM

Q: And the GI50 (IGROV1 ovarian)?
A: 15 µM

Q: And the TGI (IGROV1 ovarian)?
A: 35.4 µM

Q: And the GI50 (K-562 leukemia)?
A: 16.8 µM

Q: What about the TGI (K-562 leukemia) of the same compound?
A: 63.9 µM

Q: And the GI50 (KM12 colon)?
A: 15.5 µM

Q: What about the TGI (KM12 colon) of the same compound?
A: 34 µM

Q: And the GI50 (LOX IMVI melanoma)?
A: 16.9 µM

Q: And the TGI (LOX IMVI melanoma)?
A: 39.6 µM

Q: And the GI50 (M14 melanoma)?
A: 17.7 µM

Q: And the TGI (M14 melanoma)?
A: 37.9 µM

Q: What about the GI50 (MALME-3M melanoma) of the same compound?
A: 16.2 µM

Q: What about the TGI (MALME-3M melanoma) of the same compound?
A: 33 µM

Q: And the GI50 (MCF7 breast)?
A: 14.4 µM

Q: What about the TGI (MCF7 breast) of the same compound?
A: 33.6 µM

Q: And the GI50 (MDA-MB-231 breast)?
A: 23.3 µM

Q: What about the TGI (MDA-MB-231 breast) of the same compound?
A: 44.4 µM

Q: What about the GI50 (MDA-MB-435) of the same compound?
A: 15.7 µM

Q: What about the TGI (MDA-MB-435) of the same compound?
A: 37.1 µM

Q: And the GI50 (MOLT-4 leukemia)?
A: 9.4 µM

Q: What about the TGI (MOLT-4 leukemia) of the same compound?
A: 59 µM

Q: And the GI50 (NCI-H226 lung)?
A: 22 µM

Q: What about the TGI (NCI-H226 lung) of the same compound?
A: 45.6 µM

Q: And the GI50 (NCI-H23 lung)?
A: 17.7 µM

Q: And the TGI (NCI-H23 lung)?
A: 36.4 µM

Q: And the GI50 (NCI-H460 lung)?
A: 18 µM

Q: And the TGI (NCI-H460 lung)?
A: 39.8 µM

Q: And the GI50 (NCI-H522 lung)?
A: 13.2 µM

Q: And the TGI (NCI-H522 lung)?
A: 29.2 µM

Q: And the GI50 (NCI/ADR-RES ovarian)?
A: 20.1 µM

Q: And the TGI (NCI/ADR-RES ovarian)?
A: 49 µM

Q: What about the GI50 (OVCAR-3 ovarian) of the same compound?
A: 15.4 µM

Q: What about the TGI (OVCAR-3 ovarian) of the same compound?
A: 34.3 µM

Q: And the GI50 (OVCAR-4 ovarian)?
A: 20.1 µM

Q: What about the TGI (OVCAR-4 ovarian) of the same compound?
A: 55.3 µM

Q: And the GI50 (OVCAR-5 ovarian)?
A: 20.7 µM

Q: What about the TGI (OVCAR-5 ovarian) of the same compound?
A: 46.8 µM

Q: And the GI50 (OVCAR-8 ovarian)?
A: 21.5 µM

Q: And the TGI (OVCAR-8 ovarian)?
A: 51.1 µM

Q: And the GI50 (PC-3 prostate)?
A: 22.3 µM

Q: And the TGI (PC-3 prostate)?
A: 62.7 µM

Q: What about the GI50 (RPMI-8226 leukemia) of the same compound?
A: 5.03 µM

Q: And the TGI (RPMI-8226 leukemia)?
A: 37.6 µM

Q: What about the GI50 (RXF 393 renal) of the same compound?
A: 25.9 µM

Q: And the TGI (RXF 393 renal)?
A: 71.4 µM

Q: What about the GI50 (SF-268 CNS) of the same compound?
A: 17 µM

Q: And the TGI (SF-268 CNS)?
A: 42.2 µM

Q: What about the GI50 (SF-295 CNS) of the same compound?
A: 21.8 µM

Q: What about the TGI (SF-295 CNS) of the same compound?
A: 46.6 µM

Q: What about the GI50 (SK-MEL-2 melanoma) of the same compound?
A: 14.5 µM

Q: What about the TGI (SK-MEL-2 melanoma) of the same compound?
A: 33.7 µM

Q: And the GI50 (SK-MEL-28 melanoma)?
A: 19.8 µM

Q: What about the TGI (SK-MEL-28 melanoma) of the same compound?
A: 40.8 µM

Q: What about the GI50 (SK-MEL-5 melanoma) of the same compound?
A: 20.2 µM

Q: And the TGI (SK-MEL-5 melanoma)?
A: 38 µM

Q: And the GI50 (SK-OV-3 ovarian)?
A: 32.1 µM

Q: And the TGI (SK-OV-3 ovarian)?
A: > 100 µM

Q: And the GI50 (SN12C renal)?
A: 16 µM

Q: And the TGI (SN12C renal)?
A: 32.6 µM

Q: And the GI50 (SNB-19 CNS)?
A: 22.6 µM

Q: What about the TGI (SNB-19 CNS) of the same compound?
A: 49.4 µM

Q: What about the GI50 (SR leukemia) of the same compound?
A: 4.61 µM

Q: What about the TGI (SR leukemia) of the same compound?
A: 64.3 µM

Q: What about the GI50 (SW-620 colon) of the same compound?
A: 30.9 µM

Q: What about the TGI (SW-620 colon) of the same compound?
A: 77.5 µM

Q: And the GI50 (T-47D breast)?
A: 40.5 µM

Q: What about the TGI (T-47D breast) of the same compound?
A: > 100 µM

Q: And the GI50 (TK-10 renal)?
A: 23.1 µM

Q: What about the TGI (TK-10 renal) of the same compound?
A: 48.4 µM

Q: And the GI50 (U251 CNS)?
A: 19.1 µM

Q: What about the TGI (U251 CNS) of the same compound?
A: 42.1 µM

Q: And the GI50 (UACC-62 melanoma)?
A: 13.9 µM

Q: What about the TGI (UACC-62 melanoma) of the same compound?
A: 29.1 µM

Q: What about the GI50 (UO-31 renal) of the same compound?
A: 16.7 µM

Q: What about the TGI (UO-31 renal) of the same compound?
A: 36.8 µM

Source: PubChem BioAssay (NCI)
